Reference: US20260085049A1, “CRYSTAL FORM OF ERGOTHIONEINE” (NANJING NUTRABUILDING BIO-TECH CO., LTD., priority 2023, published 2026)

Tests used:
[1] = Analysis and comparison of properties: moisture; format: physicochemical; conditions: solid forms prepared from crude ergothioneine
Experimental: (§1) X-ray diffraction (XRD), differential scanning calorimetry (DSC), elemental analysis, particle size analysis, quantitative nuclear magnetic resonance (NMR), Raman spectroscopy, infrared spectroscopy (IR), TGA, IPC-MS, DVS and other tests were carried out on the crystal forms prepared in the Examples.
(§2) Using crude ergothioneine as raw material, three crystal forms A, B and C were prepared respectively, and their properties were compared with those of amorphous ergothioneine.

[2] = Analysis and comparison of properties: hygroscopicity; format: physicochemical; conditions: solid forms prepared from crude ergothioneine
Experimental: as §1, §2

[3] = listed as amorphous ergothioneine

Moisture (%) [1] | Hygroscopicity [2] | Moisture (%) [1, 3] | Hygroscopicity [2, 3] | Compound
0.10% | Stable |  |  | C[N+](C)(C)[C@@H](Cc1c[nH]c(=S)[nH]1)C(=O)[O-] [Crystal form B, ergothioneine]
0.07% | Stable |  |  | C[N+](C)(C)[C@@H](Cc1c[nH]c(=S)[nH]1)C(=O)[O-] [Crystal form A, ergothioneine]
1.29% | Easily | 1.29% | strong hygroscopicity | C[N+](C)(C)[C@@H](Cc1c[nH]c(=S)[nH]1)C(=O)[O-] [Amorphous, ergothioneine]
0.09% | Stable |  |  | C[N+](C)(C)[C@@H](Cc1c[nH]c(=S)[nH]1)C(=O)[O-] [Crystal form C, ergothioneine]
